# Test results reported in ChEMBL document CHEMBL4482301, “Methods to identify modulators” (2012).
# Experiments:
# Type in all cases: functional, cell-based
# [1] = target: T1, Taste receptor type 2 member 7 (Homo sapiens) (UniProt Q9NYW3); experiment: Agonist activity at N-terminal rat ST3 receptor-fused full length human TAS2R7 transiently expressed in HEK293T cells co-expressing Galpha16gust44 assessed as increase in intracellular calcium level by measuring deltaF/F0 ratio level by Fluo-4AM dye based FLIPR assay
# T1 sequence (whole entry): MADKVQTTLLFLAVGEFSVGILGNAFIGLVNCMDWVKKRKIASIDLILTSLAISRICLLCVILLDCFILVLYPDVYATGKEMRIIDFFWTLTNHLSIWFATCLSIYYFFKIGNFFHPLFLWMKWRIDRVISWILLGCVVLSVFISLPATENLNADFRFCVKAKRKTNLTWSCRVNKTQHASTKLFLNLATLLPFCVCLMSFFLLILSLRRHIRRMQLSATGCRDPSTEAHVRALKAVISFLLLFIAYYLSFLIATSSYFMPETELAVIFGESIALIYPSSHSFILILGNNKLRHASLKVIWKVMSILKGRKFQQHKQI
# [2] = target: T1, Taste receptor type 2 member 7 (Homo sapiens); experiment: (§1) Agonist activity at N-terminal rat ST3 receptor-fused full length human TAS2R7 stably expressed in HEK293T cells co-expressing Galpha16gust44 assessed as increase in intracellular calcium level by measuring deltaF/F0 ratio level at 0.16 mM by Fluo-4AM dye based FLIPR assay (reference value: 0.15 +/- 0.06)
# [3] = target: T1, Taste receptor type 2 member 7 (Homo sapiens); experiment: Agonist activity at N-terminal rat ST3 receptor-fused full length human TAS2R7 transiently expressed in HEK293T cells co-expressing Galpha16gust44 assessed as increase in intracellular calcium level by measuring deltaF/F0 ratio level at 2.60 mM by Fluo-4AM dye based FLIPR assay
# [4] = target: T1, Taste receptor type 2 member 7 (Homo sapiens); experiment: Agonist activity at N-terminal rat ST3 receptor-fused full length human TAS2R7 transiently expressed in HEK293T cells co-expressing Galpha16gust44 assessed as increase in intracellular calcium level by measuring deltaF/F0 ratio level at 0.33 mM by Fluo-4AM dye based FLIPR assay
# [5] = target: T1, Taste receptor type 2 member 7 (Homo sapiens); experiment: Agonist activity at N-terminal rat ST3 receptor-fused full length human TAS2R7 transiently expressed in HEK293T cells co-expressing Galpha16gust44 assessed as increase in intracellular calcium level by measuring deltaF/F0 ratio level at 0.65 mM by Fluo-4AM dye based FLIPR assay
# [6] = target: T1, Taste receptor type 2 member 7 (Homo sapiens); experiment: Agonist activity at N-terminal rat ST3 receptor-fused full length human TAS2R7 transiently expressed in HEK293T cells co-expressing Galpha16gust44 assessed as increase in intracellular calcium level by measuring deltaF/F0 ratio level at 0.04 mM by Fluo-4AM dye based FLIPR assay
# [7] = target: T1, Taste receptor type 2 member 7 (Homo sapiens); experiment: as §1, with “0.02” for “0.16”, “0.08” for “0.15”, “0.03)” for “0.06)”
# [8] = target: T1, Taste receptor type 2 member 7 (Homo sapiens); experiment: as §1, with “1.3” for “0.16”, “0.53” for “0.15”, “0.1)” for “0.06)”
# [9] = target: T1, Taste receptor type 2 member 7 (Homo sapiens); experiment: as §1, with “0.01” for “0.16”, “0.09” for “0.15”, “0.04)” for “0.06)”
# [10] = target: T1, Taste receptor type 2 member 7 (Homo sapiens); experiment: Agonist activity at N-terminal rat ST3 receptor-fused full length human TAS2R7 transiently expressed in HEK293T cells co-expressing Galpha16gust44 assessed as increase in intracellular calcium level by measuring deltaF/F0 ratio level at 0.08 mM by Fluo-4AM dye based FLIPR assay
# [11] = target: T1, Taste receptor type 2 member 7 (Homo sapiens); experiment: Agonist activity at N-terminal rat ST3 receptor-fused full length human TAS2R7 transiently expressed in HEK293T cells co-expressing Galpha16gust44 assessed as increase in intracellular calcium level by measuring deltaF/F0 ratio level at 0.16 mM by Fluo-4AM dye based FLIPR assay
# [12] = target: T1, Taste receptor type 2 member 7 (Homo sapiens); experiment: as §1, with “0.65” for “0.16”, “0.41” for “0.15”, “0.14)” for “0.06)”
# [13] = target: T1, Taste receptor type 2 member 7 (Homo sapiens); experiment: Agonist activity at N-terminal rat ST3 receptor-fused full length human TAS2R7 transiently expressed in HEK293T cells co-expressing Galpha16gust44 assessed as increase in intracellular calcium level by measuring deltaF/F0 ratio level at 0.01 mM by Fluo-4AM dye based FLIPR assay
# [14] = target: T1, Taste receptor type 2 member 7 (Homo sapiens); experiment: Agonist activity at N-terminal rat ST3 receptor-fused full length human TAS2R7 transiently expressed in HEK293T cells co-expressing Galpha16gust44 assessed as increase in intracellular calcium level by measuring deltaF/F0 ratio level at 0.02 mM by Fluo-4AM dye based FLIPR assay
# [15] = target: T1, Taste receptor type 2 member 7 (Homo sapiens); experiment: as §1, with “0.08” for “0.16”, “0.1” for “0.15”, “0.04)” for “0.06)”
# [16] = target: T1, Taste receptor type 2 member 7 (Homo sapiens); experiment: as §1, with “2.60” for “0.16”, “0.65” for “0.15”, “0.13)” for “0.06)”
# [17] = target: T1, Taste receptor type 2 member 7 (Homo sapiens); experiment: as §1, with “0.04” for “0.16”, “0.08” for “0.15”, “0.03)” for “0.06)”
# [18] = target: T1, Taste receptor type 2 member 7 (Homo sapiens); experiment: Agonist activity at N-terminal rat ST3 receptor-fused full length human TAS2R7 transiently expressed in HEK293T cells co-expressing Galpha16gust44 assessed as increase in intracellular calcium level by measuring deltaF/F0 ratio level at 1.3 mM by Fluo-4AM dye based FLIPR assay
# [19] = target: T1, Taste receptor type 2 member 7 (Homo sapiens); experiment: as §1, with “0.33” for “0.16”, “0.34” for “0.15”
Compound,Activity [1],Ratio [2],Ratio [3],Ratio [4],Ratio [5],Ratio [6],Ratio [7],Ratio [8],Ratio [9],Ratio [10],Ratio [11],Ratio [12],Ratio [13],Ratio [14],Ratio [15],Ratio [16],Ratio [17],Ratio [18],Ratio [19]
CC(C)[C@H]1CC[C@H](C)C[C@@H]1O,Dose-dependent effect,–,–,–,–,–,–,–,–,–,–,–,–,–,–,–,–,–,–
CC(C)[C@@H]1CC[C@@H](C)C[C@H]1O,Dose-dependent effect,0.23,0.65,0.34,0.41,0.08,0.09,1.16,0.09,0.1,0.15,1.03,0.09,0.08,0.12,0.92,0.13,0.53,0.61
